# Measured values reported in US9688698B2, “Heteroaromatic compounds and their use as dopamine D1 ligands” (PFIZER INC., priority 2014, dated 2017).
# Where a name gives a salt, the structure may show the parent alone.
# Target: T1, Human D1 Receptor (Homo sapiens, UniProt P21728)
# T1 construct: expressed in transfected cells; host or cells: LTK cell line over-expressing the D1 receptor
# Assay: Human D1 Receptor Binding Assay ([3H]-SCH23390 competition binding)
# Details: over-expressing LTK human cell lines; 0.5 nM [3H]-SCH23390; 30 min at 37° C.; footnote a = geometric mean of ≧5 determinations, footnote b = single determination; read-out: Human D1 Receptor Binding, Ki (nM); Geometric mean of 2-4 determinations (unless otherwise indicated)
# Experimental: The affinity of the compounds described herein was determined by competition binding assays similar to those described in Ryman-Rasmussen et al., “Differential activation of adenylate cyclase and receptor internalization by novel dopamine D1 receptor agonists”, Molecular Pharmacology 68(4):1039-1048 (2005).
# D1 binding assays were performed using over-expressing LTK human cell lines. […] These ligand and tissue concentrations were used in time course studies to determine linearity and equilibrium conditions for binding. Binding was at equilibrium with the specified amount of tissue in 30 minutes at 37° C. […] The pellet was resuspended in assay buffer [50 mM Tris (pH 7.4@RT) containing 4 mM MgSO4 and 0.5 mM EDTA]. […] Non-specific binding was determined by radioligand binding in the presence of a saturating concentration of (+)-Butaclamol (10 μM), a D1 antagonist. After a 30 minute incubation period at 37° C., assay samples were rapidly filtered through Unifilter-96 GF/B PEI-coated filter plates and rinsed with 50 mM Tris buffer (pH 7.4 at 4° C.). […] The IC50 value (concentration at which 50% inhibition of specific binding occurs) was calculated by linear regression of the concentration-response data in Microsoft Excel. Ki values were calculated according to the Cheng-Prusoff equation: […]
# T1 sequence (P21728 whole entry): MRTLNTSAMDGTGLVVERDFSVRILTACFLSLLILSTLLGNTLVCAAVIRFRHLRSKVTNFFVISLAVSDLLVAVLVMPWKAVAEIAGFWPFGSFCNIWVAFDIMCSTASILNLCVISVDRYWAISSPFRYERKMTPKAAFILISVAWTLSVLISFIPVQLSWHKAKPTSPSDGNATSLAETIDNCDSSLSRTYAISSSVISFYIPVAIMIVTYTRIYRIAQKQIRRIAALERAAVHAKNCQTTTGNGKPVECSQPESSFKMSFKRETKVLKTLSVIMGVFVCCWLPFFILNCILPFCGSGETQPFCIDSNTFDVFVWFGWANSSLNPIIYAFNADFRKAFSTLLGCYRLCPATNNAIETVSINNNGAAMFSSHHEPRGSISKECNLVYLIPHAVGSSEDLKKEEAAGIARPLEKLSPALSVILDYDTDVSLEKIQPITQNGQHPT
row,Ki,SMILES
1,1060 nM,"Cc1ncnc(C)c1-c1cc(F)c(Oc2nccc3ncsc23)c(F)c1 [Example 32, 4[4-(4,6-dimethylpyrimidin-5-yl)-2,6-difluorophenoxy][1,3]thiazolo[5,4-c]pyridine]"
2,864 nM,"Cc1ncnc(C)c1-c1cc(F)c(Oc2ncnc3ccsc23)c(F)c1 [Example 33, 4-[4-(4,6-dimethylpyrimidin-5-yl)-2,6-difluorophenoxy]thieno[3,2-d]pyrimidine]"
3,151 nM,"Cc1cc(Oc2nccc3ncsc23)c(F)cc1-c1c(C)ncnc1C [Example 34, 4-[4-(4,6-dimethylpyrimidin-5-yl)-2-fluoro-5-methylphenoxy][1,3]thiazolo[5,4-c]pyridine]"
4,480 nM,"Cc1ncnc(C)c1-c1ccc(Oc2ncnc3ccsc23)cc1C#N [Example 35, 2-(4,6-dimethylpyrimidin-5-yl)-5-(thieno[3,2-d]pyrimidin-4-yloxy)benzonitrile]"
5,6.7 nM,"Cc1ncnc(C)c1-c1ccc(Oc2nccc3ccsc23)cc1Cl [Example 36, 7-[3-chloro-4-(4,6-dimethylpyrimidin-5-yl)phenoxy]thieno[2,3-c]pyridine]"
6,79.8 nM,"Cc1ncnc(C)c1-c1cc(F)c(Oc2nccc3ccsc23)c(F)c1 [Example 37, 7-[4-(4,6-dimethylpyrimidin-5-yl)-2,6-difluorophenoxy]thieno[2,3-c]pyridine]"
7,7.9 nM,"Cc1cc(Oc2nccc3ccsc23)c(F)cc1-c1c(C)ncnc1C [Example 38, 7-[4-(4,6-dimethylpyrimidin-5-yl)-2-fluoro-5-methylphenoxy]thieno[2,3-c]pyridine]"
8,28.2 nM,"Cc1ncnc(C)c1-c1ccc(Oc2nccc3ccsc23)c(F)c1 [Example 39, 7-[4-(4,6-dimethylpyrimidin-5-yl)-2-fluorophenoxy]thieno[2,3-c]pyridine]"
9,40.7 nM,"Cc1ncnc(C)c1-c1ccc(Oc2nccc3ccsc23)c(F)c1C [Example 40, 7-[4-(4,6-dimethylpyrimidin-5-yl)-2-fluoro-3-methylphenoxy]thieno[2,3-c]pyridine]"
10,24.3 nM,"Cc1ncnc(C)c1-c1cc(F)c(Oc2nccc3ccsc23)cc1F [Example 41, 7-[4-(4,6-dimethylpyrimidin-5-yl)-2,5-difluorophenoxy]thieno[2,3-c]pyridine]"
11,17.7 nM,"COc1cc(Oc2nccc3ccsc23)ccc1-c1c(C)cnnc1C [Example 42, 7-[4-(3,5-dimethylpyridazin-4-yl)-3-methoxyphenoxy]thieno[2,3-c]pyridine]"
12,46.3 nM,"Cc1cnnc(C)c1-c1ccc(Oc2nccc3ccsc23)cc1C#N [Example 43, 2-(3,5-dimethylpyridazin-4-yl)-5-(thieno[2,3-c]pyridin-7-yloxy)benzonitrile, trifluoroacetate salt]"
13,16.4 nM,"COc1cc(Oc2nccc3ccsc23)ccc1-c1cccnc1C [Example 44, 7-[3-methoxy-4-(2-methylpyridin-3-yl)phenoxy]thieno[2,3-c]pyridine, trifluoroacetate salt]"
14,6.1 nM,"Cc1cnnc(C)c1-c1ccc(Oc2nccc3ccsc23)cc1F [Example 47, 7-[4-(3,5-dimethylpyridazin-4-yl)-3-fluorophenoxy]thieno[2,3-c]pyridine]"
15,13.5 nM,"COc1cc(Oc2nccc3ccsc23)ccc1-c1c(C)ncnc1C [Example 48, 7-[4-(4,6-dimethylpyrimidin-5-yl)-3-methoxyphenoxy]thieno[2,3-c]pyridine]"
16,16.3 nM,"Cc1ncnc(C)c1-c1ccc(Oc2nccc3ccsc23)cc1C#N [Example 49, 2-(4,6-dimethylpyrimidin-5-yl)-5-(thieno[2,3-c]pyridin-7-yloxy)benzonitrile]"

row,Ki,SMILES
1,6.7 nM,"Cc1ncnc(C)c1-c1ccc(Oc2nccc3ccsc23)cc1F [Example 50, 7-[4-(4,6-dimethylpyrimidin-5-yl)-3-fluorophenoxy]thieno[2,3-c]pyridine]"
2,89.5 nM,"Cc1nc2cnccc2n1-c1ccc(Oc2nccc3ccsc23)cc1 [Example 51, 2-methyl-1-[4-(thieno[2,3-c]pyridin-7-yloxy)phenyl]-1H-imidazo[4,5-c]pyridine, trifluoroacetate salt]"
3,212 nM,"Cc1cc(Oc2nccc3ccoc23)ccc1-c1c(C)ncnc1C#N [Example 52, 5-[4-(furo[2,3-c]pyridin-7-yloxy)-2-methylphenyl]-6-methylpyrimidine-4-carbonitrile]"
4,1890 nM,"Cc1cc(Oc2nccc3cc[nH]c23)ccc1-c1nccnc1C [Example 53, 7-[3-methyl-4-(3-methylpyrazin-2-yl)phenoxy]-1H-pyrrolo[2,3-c]pyridine]"
5,68.9 nM,"Cc1cc(Oc2nccc3cc[nH]c23)ccc1-c1c(C)ncc2nccn12 [Example 54, 6-methyl-5-[2-methyl-4-(1H-pyrrolo[2,3-c]pyridin-7-yloxy)phenyl]imidazo[1,2-a]pyrazine]"
6,614 nM,"Cc1cc(Oc2nccc3cc[nH]c23)ccc1-c1c(C)ncnc1C#N [Example 55, 6-methyl-5-[2-methyl-4-(1H-pyrrolo[2,3-c]pyridin-7-yloxy)phenyl]pyrimidine-4-carbonitrile]"
7,106 nM,"Cc1nc2ccnc(Oc3ccc(-c4c(C)n[nH]c(=O)c4C)c(C)c3)c2s1 [Example 56, 4,6-dimethyl-5-{2-methyl-4-[(2-methyl[1,3]thiazolo[5,4-c]pyridin-4-yl)oxy]phenyl}pyridazin-3(2H)-one]"
8,2340 nM,"Cc1cc(Oc2ncnc3ncsc23)ccc1-c1c(C)ncnc1C [Example 57, 7-[4-(4,6-dimethylpyrimidin-5-yl)-3-methylphenoxy][1,3]thiazolo[4,5-d]pyrimidine]"
9,75.1 nM,"Cc1cc(Oc2nccc3ncsc23)ccc1-c1c(C)ncnc1C [Example 58, 4-[4-(4,6-dimethylpyrimidin-5-yl)-3-methylphenoxy][1,3]thiazolo[5,4-c]pyridine]"
10,185 nM,"COc1cc(Oc2nccc3ncsc23)ccc1-c1c(C)ncnc1C [Example 59, 4-[4-(4,6-dimethylpyrimidin-5-yl)-3-methoxyphenoxy][1,3]thiazolo[5,4-c]pyridine]"
11,65.3 nM,"Cc1cc(Oc2nccc3ncsc23)ccc1-c1c(C)cnnc1C [Example 60, 4-[4-(3,5-dimethylpyridazin-4-yl)-3-methylphenoxy][1,3]thiazolo[5,4-c]pyridine]"
12,109 nM,"Cc1cnnc(C)c1-c1ccc(Oc2nccc3ncsc23)cc1F [Example 63, 4-[4-(3,5-dimethylpyridazin-4-yl)-3-fluorophenoxy][1,3]thiazolo[5,4-c]pyridine]"
13,175 nM,"Cc1ncnc(C)c1-c1ccc(Oc2nccc3ncsc23)c(F)c1C [Example 66, 4-[4-(4,6-dimethylpyrimidin-5-yl)-2-fluoro-3-methylphenoxy][1,3]thiazolo[5,4-c]pyridine]"
14,17.7 nM,"Cc1n[nH]c(=O)c(C)c1-c1ccc(Oc2ncnc3ccsc23)cc1 [Example 67, 4,6-dimethyl-5-[4-(thieno[3,2-d]pyrimidin-4-yloxy)phenyl]pyridazin-3(2H)-one]"
15,15.6 nM,"Cc1c(-c2ccc(Oc3ncnc4ccsc34)cc2)n(C)c(=O)[nH]c1=O [Example 68, 1,5-dimethyl-6-[4-(thieno[3,2-d]pyrimidin-4-yloxy)phenyl]pyrimidine-2,4(1H,3H)-dione]"
16,126 nM,"Cc1cc(Oc2nccc3cc[nH]c23)ccc1-c1c(C)n[nH]c(=O)c1C [Example 69, 4,6-dimethyl-5-[2-methyl-4-(1H-pyrrolo[2,3-c]pyridin-7-yloxy)phenyl]pyridazin-3(2H)-one]"
